Consider three molecules from patent USRE38330E1, “Preventing and reversing advanced glycosylation endproducts” (Alteon Inc., priority 1995, dated 2003).

Molecules are shown by their SMILES. Like-named read-outs stand apart in the source and are kept apart here.

Series [1] deals with fixed protein (gelatin, i.e., collagen) surface. Description: Surface browning experiment on gelatin/paper disks in glucose-6-phosphate. The note with it: 100 mM glucose-6-phosphate, one week at 50° C., final concentration of 0.04% chlorhexidine (Peridex). The protocol: To further study the ability of inhibitors of nonenzymatic browning to prevent the discoloration of protein on a surface, such as that which occurs on the tooth surface, the following surface browning experiment is performed. As a substitute for a pellicle-covered tooth surface, unexposed and developed photographic paper is used to provide a fixed protein (gelatin, i.e., collagen) surface on a paper backing. […] Glucose-6-phosphate is a sugar capable of participating in nonenzymatic browning at a more rapid rate than glucose. In addition to the glucose-6-phosphate, chlorhexidine and/or a compound of Formula I are included. After incubation, the gelatin/paper disks are rinsed with water, observed for brown color, and photographed.

Series [2] deals with T1, cross-linking of glycated bovine serum albumin (AGE-BSA) to the rat tail tendon collagen (Bos taurus, UniProt P02769).
T1 construct: glycated bovine serum albumin (AGE-BSA); from tissue; host or cells: collagen from rat tail tendon; BSA from bovine serum, glycated in house
In words: Inhibition of cross-linking of glycated BSA (AGE-BSA) to rat tail tendon collagen coated 96-well plate (ELISA). Type of series: biochemical. On the procedure: The cross-linked AGE-BSA to the tail tendon coated plate was then quantitated by the polyclonal antibody raised against AGE-RNase.
The % inhibition of each test compound was calculated as follows.
On the technique in general: An ELISA detects its analyte on a solid surface through an enzyme-linked reagent.

Series [3] deals with T2, AGE-BSA previously crosslinked to the collagen (Bos taurus, UniProt P02769).
T2 construct: Type V BSA (bovine serum albumin); purchased Calbiochem (BSA Type V); Collaborative Biomedical Products (Biocoat rat tail collagen type I plates)
Description: Sandwich enzyme immunoassay for breaking of AGE moieties from AGE-BSA crosslinked to collagen (AGE breaker assay). The following applies: AGE breaking, 16 hours 37° C. Type of series: biochemical, bovine; rat. The protocol: The present invention also involves a novel sandwich enzyme immunoassay used to ascertain the ability of test compounds to “break” or reverse already formed advanced glycosylation endproducts by detecting the breaking of AGE (Advanced glycosylation endproduct) moieties from AGE-crosslinked protein. This assay comprises:
a) incubation of AGE-modified bovine serum albumin (AGE-BSA) on collagen-coated wells of microtiter plates for a period of 2-6 hours at a temperature of 37° C.;
b) washing of the wells with PBS-Tween;
c) application of the test compounds to the washed wells of step b;
d) incubation of the test compounds applied to the washed wells for an additional 12-24 hours at a temperature of about 37° C.; and
e) detection of the AGE-breaking using an antibody raised against AGE-ribonuclease or cross-link breaking with an antibody against BSA.
In order to ascertain the ability of the compounds of the instant invention to “break” or reverse already formed advanced glycosylation endproducts, a novel sandwich enzyme immunoassay was developed which detects breaking of AGE (Advanced glycosylation endproduct) moieties from AGE-crosslinked protein. The assay utilizes collagen-coated 96 will microtiter plates that are obtained commercially. AGE-modified protein (AGE-BSA) is incubated on the collagen-coated wells for four hours, is washed off the wells with PBS-Tween and the test compounds are added. Following an incubation period of 16 hours (37° C.) AGE-breaking is detected using an antibody raised against AGE-ribonuclease or with an antibody against BSA. […] Details of the assay are as follows:
1. AGE-BSA stock solutions were prepared as follows. Sodium phosphate buffer (0.4M) was prepared by dissolving 6 grams of monobasic sodium phosphate in 100 ml of distilled water, 7 grams of dibasic sodium phosphate (0.4M) in 100 ml of distilled water and adjusting the pH of the dibasic solution to 7.4 with the monobasic solution. Sodium azide (0.02 grams) was added per 100 ml volume to inhibit bacterial growth. The BSA solution was prepared as follows: 400 mg of Type V BSA (bovine serum albumin) was added for each ml of sodium phosphate buffer (above). A 400 mM glucose solution was prepared by dissolving […] of dextrose in 100 ml of sodium phosphate buffer (above). The BSA and glucose solutions were mixed 1:1 and incubated at 37° C. for 12 weeks. The pH of the incubation mixture was monitored weekly and adjusted to pH 7.4 if necessary. After 12 weeks, the AGE-BSA solution was dialyzed against PBS for 48 hours with four buffer changes, each at a 1:500 ratio of solution to dialysis buffer. Protein concentration was determined by the micro-Lowry method. The AGE-BSA stock solution was aliquoted and stored at −20° C.
2. Working solutions for crosslinking and breaking studies were prepared as follows. Test compounds were dissolved in PBS and the pH was adjusted to pH 7.4 if necessary. AGE-BSA stock solution was diluted in PBS to measure maximum crosslinking and in the inhibitor solution for testing inhibitory activity of compounds. The concentration of AGE-BSA necessary to achieve the optimum sensitivity was determined by initial titration of each lot of AGE-BSA.
3. Wash buffer (“PBS-Tween”) was prepared as follows. PBS was prepared by dissolving the following salts in one liter of distilled water: NaCl, 8 grams; KCl, 0.2 gram, KH2PO4. […] Tween-20 was added to a final concentration of 0.05% (vol/vol).
4. Substrates for detection of secondary antibody binding were prepared by diluting the HRP substrate buffer 1:10 in distilled water and mixing with ABTS chromogen 1:50 just prior to use.
1. Biocoat plates were blocked With 300 μl of “Superbloc”. Plates were blocked for one hour at room temperature and were washed with PBS-Tween three times with the Dynatech platewasher before addition of test reagents.
2. Each experiment was set up in the following manner.

Series [4] has as its system aortic wall protein cross-linking in diabetic rats. The note with it: cited from earlier work.
Series [5] concerns immunoglobulin trapping in the kidney. The following applies: in vivo; cited from earlier work.
The next series has as its system red blood cells. The note with it: in vivo; cited from earlier work.

T2 sequence (P02769 25-607): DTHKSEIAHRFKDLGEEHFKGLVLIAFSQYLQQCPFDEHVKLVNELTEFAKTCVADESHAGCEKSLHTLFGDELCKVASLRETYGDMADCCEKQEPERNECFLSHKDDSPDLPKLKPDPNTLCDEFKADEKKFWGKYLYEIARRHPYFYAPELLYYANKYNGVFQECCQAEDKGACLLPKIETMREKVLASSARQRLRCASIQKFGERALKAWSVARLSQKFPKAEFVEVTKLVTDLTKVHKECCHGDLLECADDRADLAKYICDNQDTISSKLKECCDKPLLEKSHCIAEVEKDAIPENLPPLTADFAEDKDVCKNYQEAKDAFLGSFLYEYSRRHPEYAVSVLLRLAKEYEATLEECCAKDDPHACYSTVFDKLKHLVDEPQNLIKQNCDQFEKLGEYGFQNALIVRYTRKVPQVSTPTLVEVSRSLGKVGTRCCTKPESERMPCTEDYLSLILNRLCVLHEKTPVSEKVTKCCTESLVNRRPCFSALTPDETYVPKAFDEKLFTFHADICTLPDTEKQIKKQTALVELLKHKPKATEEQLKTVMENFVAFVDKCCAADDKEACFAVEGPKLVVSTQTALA
T2 sequence (P02454 152-1207 partner limits assumed): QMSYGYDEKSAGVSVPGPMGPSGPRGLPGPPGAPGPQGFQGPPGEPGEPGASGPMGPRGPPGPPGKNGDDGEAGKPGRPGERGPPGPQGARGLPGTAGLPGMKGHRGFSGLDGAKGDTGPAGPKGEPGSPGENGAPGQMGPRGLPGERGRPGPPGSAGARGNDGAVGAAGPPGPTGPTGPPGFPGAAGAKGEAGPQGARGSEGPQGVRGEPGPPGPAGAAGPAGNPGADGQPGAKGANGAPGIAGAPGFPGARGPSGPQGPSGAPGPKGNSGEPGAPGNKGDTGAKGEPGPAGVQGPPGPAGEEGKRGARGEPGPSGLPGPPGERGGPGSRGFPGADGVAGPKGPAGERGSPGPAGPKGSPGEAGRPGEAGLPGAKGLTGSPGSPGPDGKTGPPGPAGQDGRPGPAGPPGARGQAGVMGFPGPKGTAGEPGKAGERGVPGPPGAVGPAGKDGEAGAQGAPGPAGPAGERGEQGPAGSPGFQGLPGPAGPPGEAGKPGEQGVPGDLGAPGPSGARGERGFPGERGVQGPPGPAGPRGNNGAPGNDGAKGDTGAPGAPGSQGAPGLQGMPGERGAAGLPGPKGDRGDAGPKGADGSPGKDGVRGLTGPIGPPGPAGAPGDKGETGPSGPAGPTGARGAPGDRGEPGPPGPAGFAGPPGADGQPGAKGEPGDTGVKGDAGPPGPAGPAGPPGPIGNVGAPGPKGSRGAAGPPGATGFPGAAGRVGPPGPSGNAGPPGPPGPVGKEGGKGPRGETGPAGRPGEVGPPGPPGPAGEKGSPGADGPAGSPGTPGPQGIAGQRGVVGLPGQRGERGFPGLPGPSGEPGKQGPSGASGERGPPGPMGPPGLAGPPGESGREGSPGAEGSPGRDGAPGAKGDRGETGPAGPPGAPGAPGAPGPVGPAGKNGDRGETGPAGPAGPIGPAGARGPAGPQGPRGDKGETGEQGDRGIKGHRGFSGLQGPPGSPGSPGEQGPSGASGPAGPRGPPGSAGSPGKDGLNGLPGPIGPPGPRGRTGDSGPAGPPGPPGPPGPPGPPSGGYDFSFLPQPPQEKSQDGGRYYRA
T2 sequence (P02466 86-1125 partner limits assumed): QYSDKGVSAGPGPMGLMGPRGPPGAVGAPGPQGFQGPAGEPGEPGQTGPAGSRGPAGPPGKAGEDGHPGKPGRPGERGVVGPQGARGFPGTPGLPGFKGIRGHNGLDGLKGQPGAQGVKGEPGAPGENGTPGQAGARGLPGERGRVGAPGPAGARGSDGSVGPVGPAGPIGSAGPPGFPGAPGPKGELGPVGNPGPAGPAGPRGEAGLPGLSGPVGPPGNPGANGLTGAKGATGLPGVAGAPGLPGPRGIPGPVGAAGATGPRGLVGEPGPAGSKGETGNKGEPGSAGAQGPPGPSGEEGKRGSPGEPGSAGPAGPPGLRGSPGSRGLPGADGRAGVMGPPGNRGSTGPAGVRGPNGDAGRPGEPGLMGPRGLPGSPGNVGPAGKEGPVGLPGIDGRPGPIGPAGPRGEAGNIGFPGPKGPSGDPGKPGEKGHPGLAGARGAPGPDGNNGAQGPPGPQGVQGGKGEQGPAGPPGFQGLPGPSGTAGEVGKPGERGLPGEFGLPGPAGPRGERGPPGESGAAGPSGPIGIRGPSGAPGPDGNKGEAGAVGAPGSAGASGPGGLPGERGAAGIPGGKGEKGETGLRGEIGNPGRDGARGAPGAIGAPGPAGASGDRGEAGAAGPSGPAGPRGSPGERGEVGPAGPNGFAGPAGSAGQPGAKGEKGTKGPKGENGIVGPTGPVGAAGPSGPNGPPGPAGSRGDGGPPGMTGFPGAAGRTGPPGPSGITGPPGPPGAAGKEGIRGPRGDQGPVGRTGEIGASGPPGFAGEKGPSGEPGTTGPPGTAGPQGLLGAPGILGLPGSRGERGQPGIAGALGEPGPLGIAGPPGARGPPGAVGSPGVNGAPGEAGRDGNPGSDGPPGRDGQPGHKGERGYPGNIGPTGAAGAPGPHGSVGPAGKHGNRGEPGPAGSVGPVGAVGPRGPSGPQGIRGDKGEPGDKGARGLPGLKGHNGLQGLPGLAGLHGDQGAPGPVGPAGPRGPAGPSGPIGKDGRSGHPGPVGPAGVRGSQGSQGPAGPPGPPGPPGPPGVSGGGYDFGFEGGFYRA
T1 sequence (P02769 25-607): as the sequence (P02769 25-607) above

On to `[H]/N=C(\N/C(=N/[H])NCCCCCCNC(=N)NC(=N)Nc1ccc(Cl)cc1)Nc1ccc(Cl)cc1` [chlorhexidine], for which the “brown color of gelatin/paper disks” value in series [1] was “significant browning”.
With `Cc1csc[n+]1CC(=O)c1ccccc1.[Br-]` [3-(2-phenyl-2-oxoethyl)-4-methylthiazolium bromide], the melting point was 218 to 220 °C (dec.). For the same molecule, the IC50 in series [2] turned out to be 10300 µM. The 50% inhibitory concentration (IC50) in series [3] (detection with anti-AGE-RNase antibody, read-out: IC50 (mM) Anti-AGE) stood at 0.23 mM. For the same molecule, in series [3] (detection with anti-BSA antibody, read-out: IC50 (mM) Anti-BSA), the IC50 is 0.3 mM.
Consider `N=C(N)NN` [aminoguanidine], for which, in series [4], the “aortic wall protein cross-linking” value was “diminishes aortic wall protein cross-linking”. Besides, the “immunoglobulin trapping in the kidney” value in series [5] was “reduction of immunoglobulin trapping in the kidney”. Moreover, in the series on red blood cells, the “diabetes-induced changes in the deformability of red blood cells” value is “has been shown to prevent it in vivo”.

Broadly, the IC50 is the concentration at which inhibition is half-maximal. As usually defined, the melting point is the temperature, or range, at which the solid turns liquid.
